Experimental data reported in ChEMBL document CHEMBL3991601, “The target landscape of clinical kinase drugs” (Science, 2017).
The source made the active and inactive calls.

How the values were obtained:
[1] = target: T1, Serine/threonine-protein kinase Nek2 (Homo sapiens, UniProt P51955)
T1 sequence (P51955 whole entry): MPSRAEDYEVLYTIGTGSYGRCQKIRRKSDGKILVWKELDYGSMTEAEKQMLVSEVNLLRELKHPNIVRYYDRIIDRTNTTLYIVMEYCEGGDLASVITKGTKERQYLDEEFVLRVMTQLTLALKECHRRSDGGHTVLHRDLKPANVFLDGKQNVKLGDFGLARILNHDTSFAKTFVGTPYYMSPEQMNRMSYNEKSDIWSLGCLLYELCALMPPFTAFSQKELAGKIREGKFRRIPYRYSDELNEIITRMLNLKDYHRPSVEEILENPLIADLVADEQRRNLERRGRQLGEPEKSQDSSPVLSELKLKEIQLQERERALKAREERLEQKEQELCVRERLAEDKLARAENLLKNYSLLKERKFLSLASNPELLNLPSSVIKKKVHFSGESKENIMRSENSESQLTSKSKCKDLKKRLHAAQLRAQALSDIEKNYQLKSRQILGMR

[2] = target: Serine/threonine-protein kinase ATR (Homo sapiens, UniProt Q13535)
[3] = target: Serine/threonine-protein kinase Nek7 (Homo sapiens, UniProt Q8TDX7)
Chain of Serine/threonine-protein kinase Nek7 (Q8TDX7 whole entry): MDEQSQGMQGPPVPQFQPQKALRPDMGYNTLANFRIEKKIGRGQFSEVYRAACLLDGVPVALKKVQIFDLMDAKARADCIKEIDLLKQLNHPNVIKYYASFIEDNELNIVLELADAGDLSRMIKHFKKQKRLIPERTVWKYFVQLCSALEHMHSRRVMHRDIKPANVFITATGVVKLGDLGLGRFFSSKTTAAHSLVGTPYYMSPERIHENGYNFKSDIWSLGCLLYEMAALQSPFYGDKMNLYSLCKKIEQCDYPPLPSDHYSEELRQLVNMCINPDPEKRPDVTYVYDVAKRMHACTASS

[4] = target: T2, dCTP pyrophosphatase 1 (Homo sapiens, UniProt Q9H773)
T2 sequence (Q9H773 whole entry): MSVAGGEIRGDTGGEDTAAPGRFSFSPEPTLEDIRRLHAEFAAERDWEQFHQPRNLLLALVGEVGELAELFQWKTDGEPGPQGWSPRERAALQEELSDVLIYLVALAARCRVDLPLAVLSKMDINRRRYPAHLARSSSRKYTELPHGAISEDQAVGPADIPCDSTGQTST

[5] = target: G protein-coupled receptor kinase 6 (Homo sapiens, UniProt P43250)
Chain of G protein-coupled receptor kinase 6 (P43250 whole entry): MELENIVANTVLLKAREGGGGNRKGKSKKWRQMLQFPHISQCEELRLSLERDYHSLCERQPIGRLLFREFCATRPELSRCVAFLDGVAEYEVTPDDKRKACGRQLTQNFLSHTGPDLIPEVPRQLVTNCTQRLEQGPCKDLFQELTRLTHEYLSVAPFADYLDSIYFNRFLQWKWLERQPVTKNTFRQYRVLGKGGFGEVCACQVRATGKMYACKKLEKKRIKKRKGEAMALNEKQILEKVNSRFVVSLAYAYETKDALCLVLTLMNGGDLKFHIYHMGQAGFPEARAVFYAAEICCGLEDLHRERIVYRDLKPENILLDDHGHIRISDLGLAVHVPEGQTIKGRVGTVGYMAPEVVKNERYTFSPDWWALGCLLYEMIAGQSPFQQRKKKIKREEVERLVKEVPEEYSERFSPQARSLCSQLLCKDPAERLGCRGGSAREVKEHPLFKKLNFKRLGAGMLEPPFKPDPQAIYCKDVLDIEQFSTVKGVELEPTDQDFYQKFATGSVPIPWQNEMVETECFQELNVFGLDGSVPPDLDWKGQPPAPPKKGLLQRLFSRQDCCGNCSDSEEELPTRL

[6] = target: Receptor-interacting serine/threonine-protein kinase 2 (Homo sapiens, UniProt O43353)
[7] = target: Cell division cycle 7-related protein kinase (Homo sapiens, UniProt O00311)
Chain of Cell division cycle 7-related protein kinase (O00311 whole entry): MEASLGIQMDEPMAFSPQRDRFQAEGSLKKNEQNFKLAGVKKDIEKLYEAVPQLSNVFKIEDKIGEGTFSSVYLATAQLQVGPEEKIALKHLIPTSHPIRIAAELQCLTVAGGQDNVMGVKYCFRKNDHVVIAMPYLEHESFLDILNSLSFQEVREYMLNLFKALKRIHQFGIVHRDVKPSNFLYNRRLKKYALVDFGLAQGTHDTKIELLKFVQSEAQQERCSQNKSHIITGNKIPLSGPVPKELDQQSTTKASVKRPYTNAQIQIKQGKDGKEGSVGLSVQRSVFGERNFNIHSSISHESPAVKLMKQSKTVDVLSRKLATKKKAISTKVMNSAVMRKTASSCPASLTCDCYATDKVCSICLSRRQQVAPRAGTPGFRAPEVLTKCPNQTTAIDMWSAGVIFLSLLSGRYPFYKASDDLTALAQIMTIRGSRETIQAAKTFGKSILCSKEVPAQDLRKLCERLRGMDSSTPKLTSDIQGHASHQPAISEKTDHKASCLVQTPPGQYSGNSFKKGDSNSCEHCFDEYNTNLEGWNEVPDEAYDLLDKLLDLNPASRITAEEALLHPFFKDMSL

[8] = target: Serine/threonine-protein kinase PAK 6 (Homo sapiens, UniProt Q9NQU5)
[9] = target: Dual specificity protein kinase CLK3 (Homo sapiens, UniProt P49761); assay type: subcellular, K-562, COLO 205, SK-N-BE(2) and MV-4-11, Cell lysate; conditions: read-out: Kd apparent
Chain of Dual specificity protein kinase CLK3 (P49761 whole entry): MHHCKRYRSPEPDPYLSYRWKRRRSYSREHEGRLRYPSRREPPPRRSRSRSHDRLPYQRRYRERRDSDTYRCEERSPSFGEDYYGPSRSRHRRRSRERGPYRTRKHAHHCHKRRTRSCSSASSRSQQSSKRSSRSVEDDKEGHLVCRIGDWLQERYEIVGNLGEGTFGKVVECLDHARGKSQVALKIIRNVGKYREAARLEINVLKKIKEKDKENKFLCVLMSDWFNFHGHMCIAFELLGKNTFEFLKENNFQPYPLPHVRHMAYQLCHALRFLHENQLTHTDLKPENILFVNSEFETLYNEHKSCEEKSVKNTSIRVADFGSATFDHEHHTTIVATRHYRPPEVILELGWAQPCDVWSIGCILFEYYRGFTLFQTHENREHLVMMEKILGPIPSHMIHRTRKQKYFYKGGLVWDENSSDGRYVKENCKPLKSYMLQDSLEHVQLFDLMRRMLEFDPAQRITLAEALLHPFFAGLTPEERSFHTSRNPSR

[10] = target: Hepatocyte growth factor receptor (Homo sapiens, UniProt P08581)
Chain of Hepatocyte growth factor receptor (P08581 whole entry): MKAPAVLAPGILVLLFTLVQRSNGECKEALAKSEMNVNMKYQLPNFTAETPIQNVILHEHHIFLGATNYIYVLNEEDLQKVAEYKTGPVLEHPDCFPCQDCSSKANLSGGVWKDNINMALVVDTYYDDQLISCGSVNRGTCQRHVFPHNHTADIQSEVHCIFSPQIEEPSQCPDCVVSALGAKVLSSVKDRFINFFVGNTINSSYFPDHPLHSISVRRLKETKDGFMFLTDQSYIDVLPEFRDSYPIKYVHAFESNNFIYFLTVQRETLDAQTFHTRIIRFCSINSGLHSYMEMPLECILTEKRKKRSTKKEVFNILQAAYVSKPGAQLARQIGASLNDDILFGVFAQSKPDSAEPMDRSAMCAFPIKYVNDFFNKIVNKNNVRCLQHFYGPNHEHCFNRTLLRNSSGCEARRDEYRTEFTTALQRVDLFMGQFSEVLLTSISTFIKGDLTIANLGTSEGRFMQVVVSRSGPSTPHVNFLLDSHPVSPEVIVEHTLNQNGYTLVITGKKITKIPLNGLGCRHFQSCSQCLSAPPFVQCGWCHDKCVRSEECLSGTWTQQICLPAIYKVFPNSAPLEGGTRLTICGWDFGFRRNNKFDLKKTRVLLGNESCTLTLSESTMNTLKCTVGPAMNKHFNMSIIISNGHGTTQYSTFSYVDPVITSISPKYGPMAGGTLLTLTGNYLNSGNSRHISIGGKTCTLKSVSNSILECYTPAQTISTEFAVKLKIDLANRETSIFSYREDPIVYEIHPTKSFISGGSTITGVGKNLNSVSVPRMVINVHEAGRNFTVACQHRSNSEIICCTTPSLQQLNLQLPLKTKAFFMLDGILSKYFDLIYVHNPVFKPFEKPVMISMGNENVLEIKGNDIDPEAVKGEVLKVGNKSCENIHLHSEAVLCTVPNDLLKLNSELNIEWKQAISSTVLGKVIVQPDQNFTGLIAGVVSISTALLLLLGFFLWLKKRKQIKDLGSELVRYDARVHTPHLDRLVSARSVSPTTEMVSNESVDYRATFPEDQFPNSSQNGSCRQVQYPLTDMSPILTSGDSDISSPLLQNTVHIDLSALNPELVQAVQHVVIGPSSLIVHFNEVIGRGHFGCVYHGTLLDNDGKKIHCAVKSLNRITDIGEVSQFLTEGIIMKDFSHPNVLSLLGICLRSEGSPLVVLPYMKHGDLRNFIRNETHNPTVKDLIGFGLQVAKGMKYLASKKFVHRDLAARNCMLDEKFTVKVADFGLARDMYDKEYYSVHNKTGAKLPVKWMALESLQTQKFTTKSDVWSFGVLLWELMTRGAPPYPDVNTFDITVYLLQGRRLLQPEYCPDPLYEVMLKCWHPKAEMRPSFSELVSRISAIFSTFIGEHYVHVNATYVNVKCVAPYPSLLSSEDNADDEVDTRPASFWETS

[11] = target: Activated CDC42 kinase 1 (Homo sapiens, UniProt Q07912)
[12] = target: Ephrin type-A receptor 7 (Homo sapiens, UniProt Q15375)
Chain of Ephrin type-A receptor 7 (Q15375 whole entry): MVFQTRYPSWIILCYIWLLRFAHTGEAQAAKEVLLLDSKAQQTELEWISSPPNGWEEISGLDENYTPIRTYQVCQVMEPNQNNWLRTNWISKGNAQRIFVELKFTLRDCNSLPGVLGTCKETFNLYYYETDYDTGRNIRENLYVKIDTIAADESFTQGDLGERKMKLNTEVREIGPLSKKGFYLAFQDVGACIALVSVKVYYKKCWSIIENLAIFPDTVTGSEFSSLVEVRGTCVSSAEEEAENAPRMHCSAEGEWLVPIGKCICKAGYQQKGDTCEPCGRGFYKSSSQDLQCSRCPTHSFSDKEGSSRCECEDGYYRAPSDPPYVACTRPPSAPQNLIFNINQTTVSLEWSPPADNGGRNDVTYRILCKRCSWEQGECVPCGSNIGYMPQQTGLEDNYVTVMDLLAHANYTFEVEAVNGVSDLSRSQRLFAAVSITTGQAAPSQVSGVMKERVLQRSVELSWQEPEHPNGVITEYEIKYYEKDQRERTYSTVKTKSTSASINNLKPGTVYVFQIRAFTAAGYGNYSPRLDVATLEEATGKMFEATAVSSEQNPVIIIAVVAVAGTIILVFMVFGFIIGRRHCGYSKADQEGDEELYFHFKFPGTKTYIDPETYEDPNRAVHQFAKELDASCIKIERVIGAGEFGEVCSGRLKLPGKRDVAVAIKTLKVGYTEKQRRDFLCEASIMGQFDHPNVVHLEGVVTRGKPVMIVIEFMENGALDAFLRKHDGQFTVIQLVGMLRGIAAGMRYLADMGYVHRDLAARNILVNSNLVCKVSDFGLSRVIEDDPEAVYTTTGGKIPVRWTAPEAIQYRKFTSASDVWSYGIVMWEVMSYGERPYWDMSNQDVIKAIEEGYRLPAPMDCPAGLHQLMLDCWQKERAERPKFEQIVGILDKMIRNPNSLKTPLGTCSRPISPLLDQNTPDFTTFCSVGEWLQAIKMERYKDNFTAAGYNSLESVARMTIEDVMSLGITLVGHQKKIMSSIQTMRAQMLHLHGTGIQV

[13] = target: Dual specificity protein kinase CLK2 (Homo sapiens, UniProt P49760)
Chain of Dual specificity protein kinase CLK2 (P49760 whole entry): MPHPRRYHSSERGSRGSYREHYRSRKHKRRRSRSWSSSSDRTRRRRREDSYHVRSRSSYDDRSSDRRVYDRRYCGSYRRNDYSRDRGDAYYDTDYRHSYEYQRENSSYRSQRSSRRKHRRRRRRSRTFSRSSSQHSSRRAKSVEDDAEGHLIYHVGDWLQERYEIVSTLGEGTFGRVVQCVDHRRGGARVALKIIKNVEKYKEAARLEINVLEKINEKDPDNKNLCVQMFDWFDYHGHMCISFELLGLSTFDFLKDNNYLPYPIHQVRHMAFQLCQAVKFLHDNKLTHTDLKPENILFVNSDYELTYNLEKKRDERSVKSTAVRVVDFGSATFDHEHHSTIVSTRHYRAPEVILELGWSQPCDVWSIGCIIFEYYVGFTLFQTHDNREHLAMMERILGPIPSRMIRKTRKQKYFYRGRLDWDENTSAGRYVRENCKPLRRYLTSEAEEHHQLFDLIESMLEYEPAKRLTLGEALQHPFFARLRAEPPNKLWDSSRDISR

[14] = target: T3, Eukaryotic translation initiation factor 5B (Homo sapiens, UniProt O60841)
T3 sequence (O60841 whole entry): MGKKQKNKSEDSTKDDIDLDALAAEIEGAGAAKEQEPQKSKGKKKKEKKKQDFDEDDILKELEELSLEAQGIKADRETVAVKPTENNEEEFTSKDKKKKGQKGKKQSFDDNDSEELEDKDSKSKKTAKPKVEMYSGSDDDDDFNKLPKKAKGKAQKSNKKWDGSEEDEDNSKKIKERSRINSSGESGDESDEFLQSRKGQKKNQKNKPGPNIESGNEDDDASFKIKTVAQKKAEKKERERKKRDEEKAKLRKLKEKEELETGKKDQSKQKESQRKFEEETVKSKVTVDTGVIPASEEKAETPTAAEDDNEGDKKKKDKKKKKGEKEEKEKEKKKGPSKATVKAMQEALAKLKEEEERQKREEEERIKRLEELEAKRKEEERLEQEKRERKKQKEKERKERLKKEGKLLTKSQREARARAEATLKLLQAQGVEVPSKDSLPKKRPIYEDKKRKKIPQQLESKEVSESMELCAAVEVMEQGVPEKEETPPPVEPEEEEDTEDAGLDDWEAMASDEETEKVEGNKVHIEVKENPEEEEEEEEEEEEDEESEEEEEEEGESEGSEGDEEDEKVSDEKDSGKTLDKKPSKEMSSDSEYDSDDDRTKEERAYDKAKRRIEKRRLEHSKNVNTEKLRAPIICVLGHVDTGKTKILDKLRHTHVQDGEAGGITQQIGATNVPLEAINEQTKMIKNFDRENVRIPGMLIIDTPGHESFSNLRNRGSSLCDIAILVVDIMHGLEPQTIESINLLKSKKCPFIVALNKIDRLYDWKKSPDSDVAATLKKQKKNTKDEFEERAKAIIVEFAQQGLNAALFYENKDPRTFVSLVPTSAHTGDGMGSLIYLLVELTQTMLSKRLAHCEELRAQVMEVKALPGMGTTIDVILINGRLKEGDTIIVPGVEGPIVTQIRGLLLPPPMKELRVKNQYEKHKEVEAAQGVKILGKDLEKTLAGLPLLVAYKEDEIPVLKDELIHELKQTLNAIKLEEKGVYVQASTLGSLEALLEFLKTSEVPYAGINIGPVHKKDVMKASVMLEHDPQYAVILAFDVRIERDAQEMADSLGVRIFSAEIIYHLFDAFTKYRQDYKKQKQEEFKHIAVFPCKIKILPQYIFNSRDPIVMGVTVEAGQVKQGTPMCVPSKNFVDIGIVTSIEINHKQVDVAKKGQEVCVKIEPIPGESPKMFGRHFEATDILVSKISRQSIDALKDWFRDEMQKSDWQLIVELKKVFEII

[15] = target: T4, Aurora kinase A (Homo sapiens, UniProt O14965)
T4 sequence (O14965 whole entry): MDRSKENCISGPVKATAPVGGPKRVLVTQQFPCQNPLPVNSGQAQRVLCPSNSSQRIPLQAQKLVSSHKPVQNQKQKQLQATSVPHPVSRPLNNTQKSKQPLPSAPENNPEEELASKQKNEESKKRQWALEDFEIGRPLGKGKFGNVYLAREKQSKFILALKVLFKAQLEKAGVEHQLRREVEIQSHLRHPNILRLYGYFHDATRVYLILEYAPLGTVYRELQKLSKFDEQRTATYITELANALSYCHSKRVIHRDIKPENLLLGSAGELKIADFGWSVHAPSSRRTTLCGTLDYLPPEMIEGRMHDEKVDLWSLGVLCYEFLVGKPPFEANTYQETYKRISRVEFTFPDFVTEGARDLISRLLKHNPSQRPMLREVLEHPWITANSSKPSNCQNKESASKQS
Note: in the data inactive means no Kd found up to 30 µM.

Structure (SMILES) | Kd [1] | Kd [2] | Kd [3] | Kd [4] | Kd [5] | Kd [6] | Kd [8] | Kd [9] | Kd [10] | Kd [11] | Kd [12] | Kd [13] | Kd [14] | Kd [15] | Kd [7]
Cn1cc(-c2[nH]c3cc(NC(=O)[C@H](N)C4CCCCC4)cc4c3c2C=NNC4=O)cn1 | > 30 µM (inactive) | > 30 µM (inactive) | > 30 µM (inactive) | > 30 µM (inactive) | > 30 µM (inactive) | > 30 µM (inactive) | 0.019 µM | > 30 µM (inactive) | > 30 µM (inactive) | > 30 µM (inactive) | > 30 µM (inactive) | > 30 µM (inactive) | – | – | > 30 µM (inactive)
CC1(COc2ccc3c(c2)ncn3-c2ccc3cccc(N4CCC(N)CC4)c3n2)COC1 [CRENOLANIB] | > 30 µM (inactive) | – | > 30 µM (inactive) | > 30 µM (inactive) | > 30 µM (inactive) | 1.31 µM (active) | > 30 µM (inactive) | > 30 µM (inactive) | > 30 µM (inactive) | > 30 µM (inactive) | > 30 µM (inactive) | – | > 30 µM (inactive) | > 30 µM (inactive) | > 30 µM (inactive)
O=S(=O)(c1cccc2c(O)nccc12)N1CCCNCC1 [HYDROXYFASUDIL] | > 30 µM (inactive) | > 30 µM (inactive) | > 30 µM (inactive) | > 30 µM (inactive) | > 30 µM (inactive) | > 30 µM (inactive) | – | > 30 µM (inactive) | > 30 µM (inactive) | > 30 µM (inactive) | > 30 µM (inactive) | > 30 µM (inactive) | > 30 µM (inactive) | > 30 µM (inactive) | –
O=C(NOC[C@H](O)CO)c1ccc(F)c(F)c1Nc1ccc(I)cc1F [MIRDAMETINIB] | > 30 µM (inactive) | – | > 30 µM (inactive) | > 30 µM (inactive) | > 30 µM (inactive) | > 30 µM (inactive) | > 30 µM (inactive) | > 30 µM (inactive) | > 30 µM (inactive) | > 30 µM (inactive) | – | > 30 µM (inactive) | > 30 µM (inactive) | > 30 µM (inactive) | –
COc1cc2nccc(Oc3ccc(NC(=O)C4(C(=O)Nc5ccc(F)cc5)CC4)cc3)c2cc1OC [CABOZANTINIB] | > 30 µM (inactive) | – | > 30 µM (inactive) | > 30 µM (inactive) | – | 0.767 µM (active) | > 30 µM (inactive) | > 30 µM (inactive) | – | > 30 µM (inactive) | > 30 µM (inactive) | > 30 µM (inactive) | > 30 µM (inactive) | – | > 30 µM (inactive)
Cc1c(Cn2c(C)nc3c(C(=O)O)cc(N4CCOCC4)cc32)cccc1C(F)(F)F [GSK-2636771] | > 30 µM (inactive) | > 30 µM (inactive) | > 30 µM (inactive) | > 30 µM (inactive) | > 30 µM (inactive) | > 30 µM (inactive) | – | > 30 µM (inactive) | > 30 µM (inactive) | > 30 µM (inactive) | > 30 µM (inactive) | > 30 µM (inactive) | – | > 30 µM (inactive) | > 30 µM (inactive)
C#Cc1cccc(Nc2ncnc3cc4c(cc23)OCCOCCOCCO4)c1 [ICOTINIB] | > 30 µM (inactive) | > 30 µM (inactive) | > 30 µM (inactive) | > 30 µM (inactive) | > 30 µM (inactive) | 2.63 µM (active) | > 30 µM (inactive) | > 30 µM (inactive) | > 30 µM (inactive) | > 30 µM (inactive) | > 30 µM (inactive) | > 30 µM (inactive) | > 30 µM (inactive) | > 30 µM (inactive) | > 30 µM (inactive)

More lines, main results first:

Kd [1] | Kd [2] | Kd [3] | Kd [4] | Kd [5] | Kd [6] | Kd [8] | Kd [9] | Kd [10] | Kd [11] | Kd [12] | Kd [13] | Kd [14] | Kd [15] | Structure (SMILES) | Kd [7]
> 30 µM (inactive) | > 30 µM (inactive) | > 30 µM (inactive) | > 30 µM (inactive) | > 30 µM (inactive) | > 30 µM (inactive) | > 30 µM (inactive) | > 30 µM (inactive) | > 30 µM (inactive) | 0.515 µM (active) | > 30 µM (inactive) | > 30 µM (inactive) | > 30 µM (inactive) | – | Cc1cc(Nc2nc(N[C@@H](C)c3ncc(F)cn3)ncc2Cl)n[nH]1 [AZD-1480] | > 30 µM (inactive)
> 30 µM (inactive) | – | > 30 µM (inactive) | > 30 µM (inactive) | > 30 µM (inactive) | > 30 µM (inactive) | > 30 µM (inactive) | > 30 µM (inactive) | > 30 µM (inactive) | > 30 µM (inactive) | > 30 µM (inactive) | > 30 µM (inactive) | > 30 µM (inactive) | > 30 µM (inactive) | Cn1c(=O)c(F)c(Nc2ccc(I)cc2F)c2c(=O)n(C[C@@H](O)CO)cnc21 [TAK-733] | –
